Source: US20120244567A1, “HUMAN EMBRYONIC STEM CELLS FOR HIGH THROUGHOUT DRUG SCREENING” (BUCK INSTITUTE FOR RESEARCH ON AGING, priority 2009, published 2012)
Structures can show the parent of a compound that is named as a salt.

Tested on: dopaminergic neurons
Conditions: enriched in treated DA neurons
Procedure: RNAs isolated from NSCs and neurons with and without drug treatments were hybridized to Illumina HumanRef-8 BeadChip (Illumina, Inc., San Diego, Calif., performed by Microarray core facility at the Burnham Institute for Medical Research). The Illumina array data were normalized by the quantile method, and then transformed log 2 ratio values for a zero mean for expression values of each gene across all samples. The statistical and bioinformatics analyses were conducted by using R and the bioconductor package (www.bioconductor.org). The gene set enrichment analysis was conducted using the GSEA software (www.broad.mit.edu/gsea).
The comparative results are then measured by a non-parametric, running sum statistic termed the enrichment score. The enrichment score significance is assessed by 1,000 permutation tests to compute the enrichment p-value.

## CCCCc1oc2ccccc2c1C(=O)c1cc(I)c(OCCN(CC)CC)c(I)c1 [Amiodarone Hydrochloride]
Nom P-Val 0
  Nes: Secondary Active Transmembrane Transporter Activity: 1.633
Nom P-Val 0.027778
  Nes: Protein Serine Threonine Kinase Activity: 1.386
Nom P-Val 0.056338
  Nes: Sequence Specific Dna Binding: 1.388
Nom P-Val 0.059524
  Nes: Phosphotransferase Activity Alcohol Group As Acceptor: 1.237
Nom P-Val 0.065574
  Nes: Anion Transmembrane Transporter Activity: 1.432
Nom P-Val 0.067797
  Nes: Lipase Activity: 1.422
Nom P-Val 0.082192
  Nes: Active Transmembrane Transporter Activity: 1.376
Nom P-Val 0.157895
  Nes: Receptor Signaling Protein Serine Threonine Kinase Activity: 1.268
Nom P-Val 0.176471
  Nes: Protein Kinase Activity: 1.196
Nom P-Val 0.207547
  Nes: Structural Constituent Of Muscle: 1.208
Nom P-Val 0.230769
  Nes: Structure Specific Dna Binding: 1.183
Nom P-Val 0.236842
  Nes: Receptor Signaling Protein Activity: 1.149
Nom P-Val 0.242857
  Nes: Ligase Activity Forming Carbon Nitrogen Bonds: 1.127
Nom P-Val 0.243243
  Nes: Small Conjugating Protein Ligase Activity: 1.144
Nom P-Val 0.25
  Nes: Ligase Activity: 1.14
  Nes: Phosphoric Diester Hydrolase Activity: 1.183
  Nes: Rhodopsin Like Receptor Activity: 1.144
Nom P-Val 0.257576
  Nes: Small Protein Conjugating Enzyme Activity: 1.146
Nom P-Val 0.258621
  Nes: Deoxyribonuclease Activity: 1.315
Nom P-Val 0.28
  Nes: Acid Amino Acid Ligase Activity: 1.18
Nom P-Val 0.301587
  Nes: Ubiquitin Protein Ligase Activity: 1.139
Nom P-Val 0.318841
  Nes: Atp Binding: 1.077
Nom P-Val 0.355932
  Nes: Atpase Activity Coupled To Movement Of Substances: 1.065
Nom P-Val 0.359551
  Nes: Dna Binding: 1.034
Nom P-Val 0.360656
  Nes: Nuclease Activity: 1.072
Nom P-Val 0.366667
  Nes: Hydrogen Ion Transmembrane Transporter Activity: 1.078
  Nes: Udp Glycosyltransferase Activity: 1.093
Nom P-Val 0.367816
  Nes: Kinase Activity: 1.036
Nom P-Val 0.371429
  Nes: Rna Polymerase Ii Transcription Factor Activity: 1.042
Nom P-Val 0.376812
  Nes: Hydrolase Activity Acting On Acid Anhydrides Catalyzing Transmembrane Movement Of Substances: 1.094
Nom P-Val 0.37931
  Nes: Double Stranded Dna Binding: 1.072
Nom P-Val 0.382353
  Nes: Enzyme Activator Activity: 1.049
Nom P-Val 0.382716
  Nes: Transmembrane Receptor Activity: 1.055
Nom P-Val 0.40625
  Nes: Inorganic Cation Transmembrane Transporter Activity: 1.065
Nom P-Val 0.409091
  Nes: Enzyme Inhibitor Activity: 1.052
Nom P-Val 0.415385
  Nes: Transferase Activity Transferring Groups Other Than Amino Acyl Groups: 1.05
Nom P-Val 0.419355
  Nes: Endonuclease Activity: 0.9859
Nom P-Val 0.421875
  Nes: Cytokine Activity: 1.063
Nom P-Val 0.424242
  Nes: Oxidoreductase Activity Acting On Ch Oh Group Of Donors: 1.054
Nom P-Val 0.428571
  Nes: Oxidoreductase Activity Acting On The Ch Ch Group Of Donors: 1.028
Nom P-Val 0.430556
  Nes: Primary Active Transmembrane Transporter Activity: 1.056
Nom P-Val 0.442857
  Nes: Gtpase Activity: 1.015
Nom P-Val 0.451613
  Nes: Transferase Activity Transferring Acyl Groups: 1.003
Nom P-Val 0.45283
  Nes: Damaged Dna Binding: 1.036
Nom P-Val 0.467742
  Nes: Phosphatase Regulator Activity: 1.042
Nom P-Val 0.473684
  Nes: N Acetyltransferase Activity: 1.019
Nom P-Val 0.482759
  Nes: Structural Constituent Of Cytoskeleton: 0.9708
Nom P-Val 0.506667
  Nes: Adenyl Ribonucleotide Binding: 0.9848
Nom P-Val 0.514706
  Nes: G Protein Coupled Receptor Activity: 0.9852
Nom P-Val 0.516667
  Nes: Protease Inhibitor Activity: 0.9864
  Nes: Transmembrane Receptor Protein Kinase Activity: 0.965
Nom P-Val 0.519231
  Nes: N Acyltransferase Activity: 0.9889
Nom P-Val 0.520548
  Nes: Enzyme Regulator Activity: 0.9793
Nom P-Val 0.523077
  Nes: Hormone Activity: 0.9749
Nom P-Val 0.530612
  Nes: General Rna Polymerase Ii Transcription Factor Activity: 0.9238
Nom P-Val 0.54321
  Nes: Pyrophosphatase Activity: 0.9536
Nom P-Val 0.5625
  Nes: Purine Ribonucleotide Binding: 0.9577
  Nes: Receptor Activity: 0.9738
Nom P-Val 0.566667
  Nes: Transferase Activity Transferring Sulfur Containing Groups: 0.9403
Nom P-Val 0.567568
  Nes: Magnesium Ion Binding: 0.9401
Nom P-Val 0.571429
  Nes: Integrin Binding: 0.9141
Nom P-Val 0.573171
  Nes: Substrate Specific Transporter Activity: 0.929
Nom P-Val 0.6
  Nes: Acetyltransferase Activity: 0.9474
Nom P-Val 0.605634
  Nes: Single Stranded Dna Binding: 0.9533
Nom P-Val 0.621212
  Nes: Protein Homodimerization Activity: 0.8817
Nom P-Val 0.628571
  Nes: Protein Domain Specific Binding: 0.9357
Nom P-Val 0.62963
  Nes: Lipid Transporter Activity: 0.9194
Nom P-Val 0.636364
  Nes: Protein Dimerization Activity: 0.9248
Nom P-Val 0.64
  Nes: Ion Transmembrane Transporter Activity: 0.9276
Nom P-Val 0.642857
  Nes: Transferase Activity Transferring Hexosyl Groups: 0.9266
Nom P-Val 0.643836
  Nes: Nucleotide Binding: 0.9324
Nom P-Val 0.64557
  Nes: Transferase Activity Transferring Phosphorus Containing Groups: 0.9499
Nom P-Val 0.647059
  Nes: Zinc Ion Binding: 0.896
Nom P-Val 0.661017
  Nes: Translation Regulator Activity: 0.8764
Nom P-Val 0.681159
  Nes: Translation Factor Activity Nucleic Acid Binding: 0.8454
Nom P-Val 0.688525
  Nes: Carbohydrate Binding: 0.8882
Nom P-Val 0.694118
  Nes: Adenyl Nucleotide Binding: 0.8847
Nom P-Val 0.696429
  Nes: Microtubule Binding: 0.8123
Nom P-Val 0.697368
  Nes: Substrate Specific Transmembrane Transporter Activity: 0.9071
Nom P-Val 0.7
  Nes: Transcription Cofactor Activity: 0.8775
Nom P-Val 0.708333
  Nes: Transcription Coactivator Activity: 0.8777
Nom P-Val 0.719298
  Nes: Sulfotransferase Activity: 0.88
Nom P-Val 0.720588
  Nes: Endopeptidase Activity: 0.8136
Nom P-Val 0.733333
  Nes: Metallopeptidase Activity: 0.8731
Nom P-Val 0.754717
  Nes: Neurotransmitter Binding: 0.789
Nom P-Val 0.757576
  Nes: Neurotransmitter Receptor Activity: 0.7972
Nom P-Val 0.758065
  Nes: Lyase Activity: 0.8646
Nom P-Val 0.759494
  Nes: Transmembrane Transporter Activity: 0.8985
Nom P-Val 0.76
  Nes: Transcription Repressor Activity: 0.8555
Nom P-Val 0.761905
  Nes: Nucleoside Triphosphatase Activity: 0.8734
Nom P-Val 0.763158
  Nes: Purine Nucleotide Binding: 0.861
Nom P-Val 0.770115
  Nes: Hydrolase Activity Acting On Acid Anhydrides: 0.8688
Nom P-Val 0.77193
  Nes: Motor Activity: 0.7716
Nom P-Val 0.781818
  Nes: Calcium Channel Activity: 0.7534
Nom P-Val 0.792453
  Nes: Hydro Lyase Activity: 0.773
Nom P-Val 0.805556
  Nes: Calcium Ion Binding: 0.7913
Nom P-Val 0.826923
  Nes: Hydrolase Activity Acting On Carbon Nitrogen But Not Peptide Bonds In Linear Amides: 0.6663
Nom P-Val 0.828947
  Nes: Transmembrane Receptor Protein Tyrosine Kinase Activity: 0.7856
Nom P-Val 0.833333
  Nes: Ion Binding: 0.813
Nom P-Val 0.84507
  Nes: Molecular Adaptor Activity: 0.7682
Nom P-Val 0.848485
  Nes: Gtp Binding: 0.769
Nom P-Val 0.857143
  Nes: Guanyl Nucleotide Exchange Factor Activity: 0.7708
Nom P-Val 0.86
  Nes: Carbon Oxygen Lyase Activity: 0.7402
